Data reported in PMC5454376, “Molecular mechanism of Gαi activation by non-GPCR proteins with a Gα-Binding and Activating motif” (Nature Communications, 2017).

Tested on: Gαi3 N269D
Assay: Co-immunoprecipitation in HEK293T cells, Gαi3 N269D versus WT
Assay type: binding
Settings: HEK293T lysates, FLAG-tagged Gαi3 N269D vs WT; GST-Ric-8A 1 μg added
Method: HEK293T cells (American Type Culture Collection) were grown at 37 °C in DMEM supplemented with 10% FBS, 100 U ml^−1 penicillin, 100 μg ml^−1 streptomycin, 1% L-glutamine and 5% CO2. DNA plasmids encoding for C-terminally 3xFLAG-tagged Gαi3 (ref. [25]) or an empty plasmid (p3xFLAG-CMV-14) were transfected using the calcium phosphate method in 10 cm dishes. The DNA amount for the Gαi3 N269D plasmid was threefold (12 μg) of that for Gαi3 WT (4 μg) to equalize their expression levels. Cells were collected 48 h after transfection by gently scrapping in PBS, centrifuged and resuspended in 1 ml of lysis buffer (20 mM HEPES (pH 7.2), 5 mM Mg(CH3COO)2, 125 mM K(CH3COO), 0.4% (v:v) Triton X-100, 1 mM DTT, 10 mM β-glycerophosphate and 0.5 mM Na3VO4 supplemented with a protease inhibitor cocktail (Sigma; catalogue #S8830)) and cleared (14,000g for 10 min) before use. Lysates were supplemented with 1 μg of purified GST-Ric-8A (12–491)[22] and 2 μg of mouse anti-FLAG antibody (Sigma F1804), and incubated for 4 h at 4 °C with rotation. BSA-blocked Protein G agarose beads (Thermo-Scientific) were added and tubes incubated for additional 90 min at 4 °C. Beads were washed four times (4.3 mM Na2HPO4, 1.4 mM KH2PO4, pH 7.4, 137 mM NaCl, 2.7 mM KCl, 0.1% (v/v) Tween 20, 10 mm MgCl2, 5 mm EDTA and 1 mm DTT) and immunoprecipitated proteins eluted by boiling in Laemmli sample buffer. […]

Substance: Full-length GIV: full-length GIV from HEK293T cells, 1,870 amino acids
- co-immunoprecipitation with nucleotide-free-mimicking mutant compared with WT: as efficiently as with the wild-type (WT) protein
